Experimental data as given in patent US20120214847A1, “2-[1-PHENYL-5-HYDROXY-4a-SUBSTITUTED-HEXAHYDROCYCLOPENTA[F]INDAZOL-5-YL]ETHYL PHENYL DERIVATIVES AS GLUCOCORTICOID RECEPTOR LIGANDS” (Merck Sharp & Dohme Corp., priority 2009, published 2012).

Target: T1, human GR (Homo sapiens, UniProt P04150)
T1 construct: naturally expresses the human GR; endogenous in cells
T1 sequence (P04150 1-777): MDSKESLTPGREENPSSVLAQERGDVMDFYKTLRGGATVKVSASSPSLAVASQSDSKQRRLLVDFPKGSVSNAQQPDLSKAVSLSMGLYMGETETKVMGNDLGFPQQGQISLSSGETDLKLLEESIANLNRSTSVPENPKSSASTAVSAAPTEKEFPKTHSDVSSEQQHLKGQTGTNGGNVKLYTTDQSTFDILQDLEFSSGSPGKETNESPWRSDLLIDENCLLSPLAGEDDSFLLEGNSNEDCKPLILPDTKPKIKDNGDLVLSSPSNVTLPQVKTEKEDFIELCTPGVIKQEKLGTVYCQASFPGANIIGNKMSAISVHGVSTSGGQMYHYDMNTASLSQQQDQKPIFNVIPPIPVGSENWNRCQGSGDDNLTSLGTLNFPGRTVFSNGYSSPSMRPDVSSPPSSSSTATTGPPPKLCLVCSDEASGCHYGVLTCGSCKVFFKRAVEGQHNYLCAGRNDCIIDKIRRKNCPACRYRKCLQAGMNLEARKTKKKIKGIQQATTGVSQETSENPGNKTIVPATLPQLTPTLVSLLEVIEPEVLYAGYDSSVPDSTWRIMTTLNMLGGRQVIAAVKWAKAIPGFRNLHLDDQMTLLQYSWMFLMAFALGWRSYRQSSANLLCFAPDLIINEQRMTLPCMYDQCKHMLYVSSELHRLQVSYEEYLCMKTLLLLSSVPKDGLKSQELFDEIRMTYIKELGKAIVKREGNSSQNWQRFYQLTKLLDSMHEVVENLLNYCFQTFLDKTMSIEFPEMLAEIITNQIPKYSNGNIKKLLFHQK
Assay: Transrepression assay (GITAR), TNFα-β-lactamase reporter in U937 cells
Format: cell-based
Conditions: for EC50: U937 cells, IP = inflection point; for Emax: U-937, U937 cells, activity repressed by 100 nM dexamethasone alone set as 100%
In short: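 U937 cells stably carrying TNFα promoter–β-lactamase, endogenous GR, preincubated with compound 30–45 min at 37° C., then stimulated with 5 ng/ml PMA plus 100 ng/ml LPS for ~18 h. CCF2-AM read-out; repression by 100 nM dexamethasone set as 100%.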

SMILES	EC50	Emax
CC[C@]12Cc3cnn(-c4ccc(F)cc4)c3C=C1CC[C@@]2(O)CCc1ccccc1S(=O)(=O)CC [Example 51, (4aS,5R)-4a-Ethyl-5-{2-[2-(ethylsulfonyl)phenyl]ethyl}-1-(4-fluorophenyl)-1,4,4a,5,6,7-hexahydrocyclopenta[f]indazol-5-ol]	65 nM	83%
CC[C@]12Cc3cnn(-c4ccc(F)cc4)c3C=C1CC[C@@]2(O)CCc1ncccc1C(N)=O [Example 52, 2-{2-[(4aS,5R)-4a-Ethyl-1-(4-fluorophenyl)-5-hydroxy-1,4,4a,5,6,7-hexahydrocyclopenta[f]indazol-5-yl]ethyl}pyridine-3-carboxamide]	53 nM	85%
CC[C@]12Cc3cnn(-c4ccc(F)cc4)c3C=C1CC[C@@]2(O)CCc1ncc(F)cc1C(N)=O [Example 53, 2-{2-[(4aS,5R)-4a-Ethyl-1-(4-fluorophenyl)-5-hydroxy-1,4,4a,5,6,7-hexahydrocyclopenta[f]indazol-5-yl]ethyl}-5-fluoropyridine-3-carboxamide]	75 nM	86%
COc1ccnc(CC[C@]2(O)CCC3=Cc4c(cnn4-c4ccc(F)cc4)C[C@@]32C2CC2)c1C(N)=O [Example 54, 2-{2-[(4aR,5R)-4a-Cyclopropyl-1-(4-fluorophenyl)-5-hydroxy-1,4,4a,5,6,7-hexahydrocyclopenta[f]indazol-5-yl]ethyl}-4-methoxypyridine-3-carboxamide]	48 nM	77%
NC(=O)c1c(C(F)(F)F)ccnc1CC[C@]1(O)CCC2=Cc3c(cnn3-c3ccc(F)cc3)C[C@@]21C1CC1 [Example 55, 2-{2-[(4aR,5R)-4a-Cyclopropyl-1-(4-fluorophenyl)-5-hydroxy-1,4,4a,5,6,7-hexahydrocyclopenta[f]indaozol-5-yl]ethyl}-4-(trifluoromethyl)pyridine-3-carboxamide]	2 nM	87%
NC(=O)Cc1ccccc1CC[C@]1(O)CCC2=Cc3c(cnn3-c3ccc(F)cc3)C[C@@]21C1CC1 [Example 56, 2-(2-{2-[(4aR,5S)-4a-Cyclopropyl-1-(4-fluorophenyl)-5-hydroxy-1,4,4a,5,6,7-hexahydrocyclopenta[f]indazol-5-yl]ethyl}phenyl)acetamide]	95 nM	78%
NC(=O)[C@H](F)c1c(F)cccc1CC[C@]1(O)CCC2=Cc3c(cnn3-c3ccc(F)cc3)C[C@@]21C1CC1 [Example 57, (2R)-2-(2-{2-[(4aR,5R)-4a-Cyclopropyl-1-(4-fluorophenyl)-5-hydroxy-1,4,4a,5,6,7-hexahydrocyclopenta[f]indazol-5-yl]ethyl}-6-fluorophenyl)-2-fluoroethanamide]	106 nM	86%
CS(=O)(=O)c1ccccc1CC[C@]1(O)CCC2=Cc3c(cnn3-c3ccc(F)cc3)C[C@@]21C1CC1 [Example 58, (4aR,5R)-4a-Cyclopropyl-1-(4-fluorophenyl)-5-{2-[2-(methylsulfonyl)phenyl]ethyl}-1,4,4a,5,6,7-hexahydrocyclopenta[f]indazol-5-ol]	5 nM	88%
CCS(=O)(=O)c1ccccc1CC[C@]1(O)CCC2=Cc3c(cnn3-c3ccc(F)cc3)C[C@@]21C1CC1 [Example 59, (4aR,5R)-4a-Cyclopropyl-5-{2-[2-(ethylsulfonyl)phenyl]ethyl}-1-(4-fluorophenyl)-1,4,4a,5,6,7-hexahydrocyclopenta[f]indazol-5-ol]	74 nM	88%
CC[C@]12Cc3cnn(-c4ccc(F)cc4)c3C=C1CC[C@@]2(O)CCc1cccc(F)c1CC(N)=O [Example 60, 2-(2-{2-[(4aS,5R)-4a-Ethyl-1-(4-fluorophenyl)-5-hydroxy-1,4,4a,5,6,7-hexahydrocyclopenta[f]indazol-5-yl]ethyl}-6-fluorophenyl)acetamide]	24 nM	84%
NC(=O)Cc1c(F)cccc1CC[C@]1(O)CCC2=Cc3c(cnn3-c3ccc(F)cc3)C[C@@]21C1CC1 [Example 61, 2-(2-{2-[(4aR,5R)-4a-Cyclopropyl-1-(4-fluorophenyl)-5-hydroxy-1,4,4a,5,6,7-hexahydrocyclopenta[f]indazol-5-yl]ethyl}-6-fluorophenyl)acetamide]	16 nM	72%
CC[C@]12Cc3cnn(-c4ccc(F)cc4)c3C=C1CC[C@@]2(O)CCc1nccc(OC)c1C(F)C(N)=O (stereo partly drawn) [Example 65, 2-(2-{2-[(4aS,5R)-4a-Ethyl-1-(4-fluorophenyl)-5-hydroxy-1,4,4a,5,6,7-hexahydrocyclopenta[f]indazol-5-yl]ethyl}-4-methoxypyridin-3-yl)-2-fluoroacetamide]	195 nM	63%
COc1ccnc(CC[C@]2(O)CCC3=Cc4c(cnn4-c4ccc(F)cc4)C[C@@]32C2CC2)c1C(F)C(N)=O (stereo partly drawn) [Example 66, 2-(2-{2-[(4aR,5R)-4a-Cyclopropyl-1-(4-fluorophenyl)-5-hydroxy-1,4,4a,5,6,7-hexahydrocyclopenta[f]indazol-5-yl]ethyl}-4-methoxypyridin-3-yl)-2-fluoroacetamide]	12 nM	76%

Other lines, results leading:

EC50	Emax	SMILES
12 nM	85%	CC[C@]12Cc3cnn(-c4ccc(F)cc4)c3C=C1CC[C@@]2(O)CCc1ncccc1S(=O)(=O)C(C)C [Example 62, (4aS,5R)-4a-Ethyl-1-(4-fluorophenyl)-5-{2-[3-(propan-2-ylsulfonyl)pyridin-2-yl]ethyl}-1,4,4a,5,6,7-hexahydrocyclopenta[f]indazol-5-ol]
127 nM	75%	O=S(=O)(c1ccccc1CC[C@]1(O)CCC2=Cc3c(cnn3-c3ccc(F)cc3)C[C@@]21C1CC1)C1CC1 [Example 63, (4aR,5R)-4a-Cyclopropyl-5-{2-[2-(cyclopropylsulfonyl)phenyl]ethyl}-1-(4-fluorophenyl)-1,4,4a,5,6,7-hexahydrocyclopenta[f]indazol-5-ol]
72 nM	77%	CC[C@]12Cc3cnn(-c4ccc(F)cc4)c3C=C1CC[C@@]2(O)CCc1nccc(OC)c1CC(N)=O [Example 64, 2-(2-{2-[(4aS,5R)-4a-Ethyl-1-(4-fluorophenyl)-5-hydroxy-1,4,4a,5,6,7-hexahydrocyclopenta[f]indazol-5-yl]ethyl}-4-methoxypyridin-3-yl)acetamide]
18 nM	71%	CC[C@]12Cc3cnn(-c4ccc(F)cc4)c3C=C1CC[C@@]2(O)CC(O)c1ccccn1 (stereo partly drawn) [Example 68, (4aS,5R)-4a-Ethyl-1-(4-fluorophenyl)-5-[2-hydroxy-2-(pyridin-2-yl)ethyl]-1,4,4a,5,6,7-hexahydrocyclopenta[f]indazol-5-ol]
142 nM	79%	CC[C@]12Cc3cnn(-c4ccc(F)cc4)c3C=C1CC[C@@]2(O)CC(O)c1ncccc1Cl (stereo partly drawn) [Example 70, (4aS,5R)-5-[2-(3-Chloropyridin-2-yl)-2-hydroxyethyl]-4a-ethyl-1-(4-fluorophenyl)-1,4,4a,5,6,7-hexahydrocyclopenta[f]indazol-5-ol]
65 nM	74%	CC[C@]12Cc3cnn(-c4ccc(F)cc4)c3C=C1CC[C@@]2(O)CC1OC(=O)c2ccccc21 (stereo partly drawn) [Example 71, 3-{[(4aS,5R)-4a-Ethyl-1-(4-fluorophenyl)-5-hydroxy-1,4,4a,5,6,7-hexahydrocyclopenta[f]indazol-5-yl]methyl}-2-benzofuran-1(3H)-one]
228 nM	51%	CC[C@]12Cc3cnn(-c4ccc(F)cc4)c3C=C1CC[C@@]2(O)CC(O)c1cc(C#N)ccn1 (stereo partly drawn) [Example 72, 2-{2-[(4aS,5R)-4a-Ethyl-1-(4-fluorophenyl)-5-hydroxy-1,4,4a,5,6,7-hexahydrocyclopenta[f]indazol-5-yl]-1-hydroxyethyl}pyridine-4-carbonitrile]
198 nM	71%	CC[C@]12Cc3cnn(-c4ccc(F)cc4)c3C=C1CC[C@@]2(O)CC(O)c1cncc(F)c1 (stereo partly drawn) [Example 73, (4aS,5R)-4a-Ethyl-1-(4-fluorophenyl)-5-[2-(5-fluoropyridin-3-yl)-2-hydroxyethyl]-1,4,4a,5,6,7-hexahydrocyclopenta[f]indazol-5-ol]
103 nM	72%	CC[C@]12Cc3cnn(-c4ccc(F)cc4)c3C=C1CC[C@@]2(O)CC(O)c1c(F)ccnc1Cl (stereo partly drawn) [Example 74, (4aS,5R)-5-[2-(2-Chloro-4-fluoropyridin-3-yl)-2-hydroxyethyl]-4a-ethyl-1-(4-fluorophenyl)-1,4,4a,5,6,7-hexahydrocyclopenta[f]indazol-5-ol]
235 nM	67%	CC[C@]12Cc3cnn(-c4ccccc4)c3C=C1CC[C@@]2(O)CC(O)c1cc(C#N)ccn1 (stereo partly drawn) [Example 75, 2-{2-[(4aS,5R)-4a-Ethyl-5-hydroxy-1-phenyl-1,4,4a,5,6,7-hexahydrocyclopenta[f]indazol-5-yl]-1-hydroxyethyl}pyridine-4-carbonitrile]
